Laboratory results as given in patent US11820754B2, “Polymorphs of an SSAO inhibitor” (Eli Lilly and Company, priority 2020, dated 2023).

Assay: Competitive slurry study (Form I vs Form II, XRPD of wet cake)
Type: physicochemical
Conditions: for XRPD Pattern (wet cake): 800 rpm
Description: XRPD analyses were performed with techniques and equipments known in the art with Cu K-alpha radiation.
Competitive slurry experiments were performed at 25° C. and 50° C. Saturated solutions of Form I in ACN and acetone at 25° C. and 50° C. were prepared. About 15 mg of Form I and Form II were weighted into the solutions respectively, and the suspensions were slurried for 1 or 3 days at 800 rpm.

Conversion of form mixture in slurry, as determined by XRPD (25 °C and 50 °C, ACN and acetone, slurried 1 or 3 days)	XRPD Pattern (wet cake) (ACN, 25 °C, slurry time 1 day)	XRPD Pattern (wet cake) (ACN, 25 °C, slurry time 3 days)	XRPD Pattern (wet cake) (ACN, 50 °C, slurry time 1 day)	XRPD Pattern (wet cake) (Acetone, 25 °C, slurry time 1 day)	XRPD Pattern (wet cake) (Acetone, 50 °C, slurry time 1 day)	XRPD Pattern (wet cake) (Acetone, 50 °C, slurry time 3 days)	Relative thermodynamic stability of polymorphic forms (versus Form I, at a temperature of 50 °C or below)	Structure (SMILES)
completely converted to Form II	Form I + Form II	Form II	Form II	Form II	Form I + Form II	Form II		COC1CCN(c2ncc(OC/C(=C/F)CN)cn2)CC1.Cc1ccc(S(=O)(=O)O)cc1 [Form I + Form II]
							more thermodynamically stable	COC1CCN(c2ncc(OC/C(=C/F)CN)cn2)CC1.Cc1ccc(S(=O)(=O)O)cc1 [Form II, (2E)-3-fluoro-2-({[2-(4-methoxypiperidin-1-yl)pyrimidin-5-yl]oxy}methyl)prop-2-en-1-aminium 4-methylbenzenesulfonate]
